Results: US20250025440A1, “COMPOSITIONS AND METHODS FOR MANAGEMENT OF HUMAN PAPILLOMA VIRUS-ASSOCIATED CANCERS” (LOMA LINDA UNIVERSITY, priority 2021, published 2025)

System: HPV+ (SCC47, SCC090, SCC104, SCC152) and HPV- (SCC19, SCC29, SCC49, SCC84) HNSCC cell lines
Assay: MTT cell viability, HNSCC panel
Assay type: cell-based
Experimental: While SAR studies using the SCC104 cell line provided evidence of the activity of the analogs, further studies were conducted to assess not just the potency, but also the selectivity. As a step towards that goal, the efficacy of GA-OH was evaluated in a panel containing both HPV^+ and HPV^− HNSCC cell lines using MTT cell viability assays. Four HPV^+ cell lines (SCC47, SCC090, SCC104, SCC152) and four HPV^− cell lines (SCC19, SCC29, SCC49, SCC84) were utilized. GA-OH behaved dose dependently in cell lines both with or without HPV. […] FIGS. 7A-7C are graphical representations of the sensitivity of HPV^+ cell lines and HPV^− cell lines to GA-OH-mediated growth inhibition. FIG. 7A is a graphical representation of the cell growth inhibition of HNSCC HPV^+ and HPV^− cell lines by GA-OH (+ and closed shapes represent HPV^+ cell lines and − and open shapes the HPV^− cell lines). […] These cells were good controls, as HPV is an established causative agent in CC carcinogenesis. Two HPV^+ cell lines, SiHa and CaSki were selected as the positive controls and the Saos-2 cell line was used as an HPV-negative control. […] FIG. 7B is a graphical representation of the cell growth inhibition of cervical cancer HPV^+ and HPV^− cell lines by GA-OH. HPV^+ cell lines display higher sensitivity than do HPV^− cell lines as shown by the leftwards shift of the HPV^+ curves (SCC47, 90, 104, 152 in FIG. 7A and SiHa and CaSki in FIG. 7B).
All working concentrations were diluted in PBS to the desired concentration before use. To test the effect of gambogic acid and/or its derivatives on cell viability, all cell lines were seeded at 2×10^4 per well in 96-well plates and allowed to adhere overnight. Various concentrations of the analogues were added and the cells incubated at 37° C. for 24 hr. Viability was then measured using the MTT assay, performed as described previously. […] Cell viability and potency were assessed from % inhibition relative to the vehicle control, and IC50 dose curves were generated using GraphPad Prism.

## 30-hydroxygambogic acid [GA-OH]
  potency and selectivity for HPV+ versus HPV- cells: more potent and selective
MTT
  cell growth inhibition, sensitivity of HPV+ versus HPV- cell lines: displayed higher sensitivity
